Experiments:
[1] = target: T1, human CSE (hCSE) (Homo sapiens, UniProt P32929); assay: hCSE inhibition in lysate of HEK293T cells expressing hCSE, HSip-1; assay type: biochemical; conditions: mean ± S.E., read-out: IC50, inhibitory activity towards hCSE in cell lysate
T1 construct: expressed in transfected cells; host or cells: HEK293T
Description: We first examined whether or not 1 inhibits human CSE (hCSE) in cell lysates. We prepared the lysate of HEK293T cells expressing hCSE, and added 1.5 mM cysteine, 100 μM PLP, 1 μM HSip-1 and various concentrations of 1 to it. Based on fluorescence measurements, the IC50 value of 1 for hCSE was calculated to be 26 ± 2 µM, which is similar to the value for rCSE measured in HEPES buffer (Fig. 4b). […] We also confirmed that all amino acid residues of rCSE involved in the recognition of 1 are conserved in hCSE (Supplementary Fig. S10).
10 µL of 1.5 mM cysteine solution in 30 mM HEPES (pH 7.4) was added to 10 µL of solution containing 300 µg/mL cell lysate of HEK293T cells expressing hCSE, 100 µM PLP, 1 µM HSip-1, 0.005% tween 20 and various concentrations of the inhibitor (0.5% DMSO as a cosolvent). The mixture was incubated at 37 °C for 3 h and the fluorescence intensity of HSip-1 was measured with a microplate reader.

[2] = target: T2, hCSE (Homo sapiens, UniProt P32929); assay: hCSE inhibition in living HEK293T cells expressing hCSE (pretreatment, wash, lysis, HSip-1); assay type: cell-based
T2 construct: expressed in transfected cells; host or cells: HEK293T
Description: (§1) We next examined the suitability of 1 for live-cell experiments. First, we performed CCK-8 assay (Dojindo) to examine its cytotoxicity. COS7 cells were incubated with various concentrations of 1 for 27 h at 37 °C under 5% CO2 and the cell viability was assessed. […] We then examined whether 1 can inhibit the enzymatic activity of hCSE in living cells by employing an indirect approach (Supplementary Fig. S12). HEK293T cells expressing hCSE were incubated with 0–1 mM 1 for 30 min, then washed twice with phosphate-buffered saline (PBS), and lysed in RIPA buffer (50 mM Tris–HCl buffer (pH 7.6), 150 mM NaCl, 1% Nonidet P40 Substitute, 0.5% sodium deoxycholate, protease inhibitor cocktail, 0.1% SDS). The inhibitory activity of 1 was evaluated by fluorescence detection after adding 1.5 mM cysteine, 100 μM PLP and 1 μM HSip-1 to these cell lysates.
Supplementary Figure S12. Experimental protocol for the indirect assessment of the hCSE-inhibitory activity of 1 in living cells. […] L-Cysteine (substrate), PLP and HSip-1 were added to the cell lysate (450 μg/mL cell lysate, 1.5 mM L-cysteine, 100 μM PLP, 1 μM HSip-1 in 30 mM HEPES buffer (pH 7.4) containing 0.005% Tween 20), and the fluorescence was measured with a plate reader (Ex. = 490 nm, Em. = 510 nm).

[3] = test system: COS7 cells; assay: CCK-8 cell viability assay; assay type: cell-based; conditions: 27 h, 37 °C
Description: as §1
We performed CCK-8 (Cell Counting Kit-8) assay (Dojindo) to examine cell viability. […] This absorbance is proportional to the number of living cells. […] The absorbance at 450 nm was measured with a microplate reader (EnVision, Perkin Elmer).
Supplementary Figure S11. […] COS7 cells were incubated in DMEM (Dulbecco’s modified Eagle’s medium) containing 1 (1, 3, 10, 30 and 100 µM) for […] and the cell viability was measured using CCK-8 reagent. […]

[4] = target: T3, rCSE (Rattus norvegicus, UniProt P18757); assay: rCSE inhibition, H2S detection by gas chromatography; assay type: biochemical; parameters: His-tag (C); made in house; host or cells: E. coli BL21; conditions: 1.5 mM cysteine, 100 μM PLP, mean ± S.E., read-out: IC50, inhibition of H2S production by rCSE
Description: Next, in order to further confirm the CSE-inhibitory ability of 1, we employed a gas chromatographic method. A mixture of 30 μg/mL rCSE, 100 μM PLP and 1.5 mM cysteine in 30 mM HEPES buffer (pH 7.4) with or without 1 or PAG was incubated in a sealed glass vial, and the air containing enzymatically produced H2S in the glass vial was analyzed by gas chromatography.
Supplementary Figure S4. (a) H2S production by rCSE in the presence of various concentrations of 1 was measured by gas chromatography. A solution of 30 μg/mL rCSE, 100 μM PLP and 1.5 mM cysteine in 30 mM HEPES buffer (pH 7.4) was incubated at r.t. for 60 min. Error bars represent ±S.D. (n = 4). (b) Inhibitory activity of 1 (mean ± S.E.). H2S was detected by gas chromatography. Error bars represent ± S.D. (n = 4).

[5] = target: T3, rCSE; assay: rCSE inhibition, cysteine persulfide (sulfane sulfur) production from cystine detected with SSP4; assay type: biochemical; parameters: His-tag (C); made in house; host or cells: E. coli BL21; conditions: cystine as substrate, SSP4 probe, mean ± S.E.
Description: We further examined whether or not 1 can inhibit the production of cysteine persulfide from cystine by CSE (Supplementary Fig. S5)[10], using a commercially available sulfane sulfur-detecting probe, SSP4.
10 µL of 0.5 mM cystine solution in 30 mM HEPES (pH 7.4) was added to 10 µL of solution containing 50 µg/mL rCSE, 100 µM PLP, 1 µM SSP4 (Dojindo), 0.005% tween 20 and various concentrations of the inhibitor (0.5% DMSO as a cosolvent). The mixture was incubated at 37 °C for 60 min and the fluorescence intensity of SSP4 was measured with a microplate reader.

T3 sequence (P18757 whole entry): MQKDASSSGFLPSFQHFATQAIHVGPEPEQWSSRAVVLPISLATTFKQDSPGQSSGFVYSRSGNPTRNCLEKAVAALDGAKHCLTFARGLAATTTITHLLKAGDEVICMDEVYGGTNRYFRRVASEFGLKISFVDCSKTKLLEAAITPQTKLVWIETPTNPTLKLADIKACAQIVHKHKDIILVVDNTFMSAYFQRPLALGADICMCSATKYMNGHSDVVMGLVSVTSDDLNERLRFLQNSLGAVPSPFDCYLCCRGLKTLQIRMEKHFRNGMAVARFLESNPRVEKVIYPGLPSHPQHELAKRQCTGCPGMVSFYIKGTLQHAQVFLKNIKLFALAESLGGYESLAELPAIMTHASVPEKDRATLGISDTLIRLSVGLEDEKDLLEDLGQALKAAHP
T2 sequence (P32929 whole entry): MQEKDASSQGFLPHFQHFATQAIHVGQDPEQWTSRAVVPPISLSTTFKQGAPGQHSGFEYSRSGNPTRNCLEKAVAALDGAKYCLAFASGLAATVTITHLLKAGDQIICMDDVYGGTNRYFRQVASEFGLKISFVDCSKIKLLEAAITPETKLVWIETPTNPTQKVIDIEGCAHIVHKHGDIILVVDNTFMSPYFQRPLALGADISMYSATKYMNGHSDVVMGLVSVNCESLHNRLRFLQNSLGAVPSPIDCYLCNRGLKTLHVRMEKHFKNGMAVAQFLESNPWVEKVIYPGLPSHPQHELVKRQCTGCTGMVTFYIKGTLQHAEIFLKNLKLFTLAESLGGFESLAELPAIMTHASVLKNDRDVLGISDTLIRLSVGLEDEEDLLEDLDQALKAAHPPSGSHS
T1 sequence (P32929 whole entry): as above

NNC(=O)C(N)=O [Compound 1, oxamic hydrazide]
IC50 [1]: 26 ± 2 µM | IC50 ([2]; HEK293T cells expressing hCSE incubated 30 min with 1, washed, lysed, mean ± S.E., read-out: IC50, inhibitory activity towards hCSE in living cells): 170 ± 33 µM | cell-membrane permeability ([2]; concluded from inhibition of hCSE in living cells): sufficiently cell-membrane permeable | cytotoxicity (cell viability) [3]: No cytotoxicity was observed below 100 µM | IC50 [4]: 23 ± 6 µM | IC50 [5]: 33 ± 3 µM
